Results reported in publication PMC6332255, “Evaluation of the Cytotoxicity of α-Cyclodextrin Derivatives on the Caco-2 Cell Line and Human Erythrocytes” (Molecules, 2015).

Assays:
Caco-2 cells [1] = assay: Real-time cell electronic sensing (RT-CES) on Caco-2 cells; format: cell-based, human; conditions: for concentration up to which non-toxic (RT-CES): up to 8 h; for IC50: up to 8 h treatment, impedance cell index; for toxicity by RT-CES, result in words: prolonged exposition time (up to 8 h) versus 30 min MTT
Protocol: (§1) Caco-2 cell line was obtained from the European Collection of Cell Cultures (ECACC). Cells were grown in plastic cell culture flasks in Dulbecco’s Modified Eagle’s Medium supplemented with 3.7 g/L NaHCO3, 10% (v/v) heat-inactivated fetal bovine serum (FBS), 1% (v/v) non-essential amino acids solution, 1% (v/v) L-glutamine, 100 IU/mL penicillin, and 100 µg/mL streptomycin at 37 °C in an atmosphere of 5% CO2. The cells were routinely maintained by regular passaging. For cytotoxic and transport experiments, cells were used between passage numbers 20 and 40. The culture media were replaced with fresh media in every 72 h.
Real-time cell electronic sensing (RT-CES) is a label-free technique for dynamic monitoring of living cells. The xCELLigence system (Roche, Basel, Switzerland) utilizes an electronic readout called impedance to non-invasively quantify adherence cell proliferation and viability. E-plates (Roche) contain gold microelectronic sensor arrays. The interaction between cells and the electrode generates impedance response that correlates linearly with cell index reflecting cell number, adherence and cell growth. This method is more sensitive and informative than colorimetric end-point assays to test pharmaceutical excipients.
The E-plate was coated with 0.2% rat tail collagen–DW solution for 20 min at 37 °C. Culture media (60 μL) was added to each well for background readings than 100 µL Caco-2 cell suspension was dispensed at the density of 1.5 × 10^4 cells/well. The cells were grown for 2 days. The medium was changed to excipients solutions and the cells in the E-plate were kept in an incubator at 37 °C for 8 h and monitored every 5 min.
The cell index at each time point was defined as (Rn − Rb)/15, where Rn is the cell-electrode impedance of the well when it contains cells and Rb is the background impedance of the well with the media alone.

human erythrocytes = assay: Hemolysis test on human red blood cells; format: cell-based; conditions: for concentration up to which not hemolytic / HC50: 10 min; for HC50: PBS pH 7.2, 37 °C, mean ± SD
Protocol: Hemolysis test was performed on fresh human blood. Erythrocytes were separated from citrated blood by centrifugation at 2500× g for 10 min.; washed three times with PBS and resuspended in the same solution. Aliquots of the cell suspension with the respective red blood cell number of 5 × 10^7 were added to the buffer solution (PBS pH 7.2) containing increasing concentrations of the samples investigated in the study. After mixing them gently, each solution was incubated at 37 °C for 10 min and then centrifuged at 5000× g. Finally, the absorbance of the hemoglobin released into the supernatant was measured at 540 nm with a FLUOstar OPTIMA Microplate Reader. The percentage of hemolysis was expressed as the ratio of hemoglobin in the supernatant of the sample solutions related to the hemoglobin concentration after the complete hemolysis of erythrocytes in water. The dose-response curve was determined, and the concentration inducing hemolysis in 50% of the erythrocyte population (HC50) was subsequently calculated.

Caco-2 cells [2] = assay: MTT cell viability assay on Caco-2 cells; format: cell-based, human; conditions: for concentration up to which no toxic effect (MTT): 30 min; for IC50: 30 min incubation at 37 °C in PBS, mean ± SD
Protocol: as §1
The MTT assay was performed on Caco-2 cells. The cells were seeded in 96 well plates until the cell monolayer become confluent. The medium was changed once. After one week the medium was removed, the cells were washed with PBS and exposed to increasing concentrations of α-CDs dissolved in phosphate buffer saline (PBS). Cells were incubated for 30 min on 37 °C. Control groups were processed equally and incubated without CD simultaneously. After treatment MTT dye (3-(4,5-dimethylthiazol-2-yl))-2,5-diphenyltetrazolium bromide, 5 mg/mL) was applied to each well for 3 h. MTT solution was removed and isopropanol-hydrochloric acid (25:1) was added to dissolve the formed formazan crystals. The absorbance was measured at 570 nm against a 690 nm reference with a FLUOstar OPTIMA Microplate Reader. Cell viability was expressed as the percentage of untreated control.

[3] = Solubility of the samples in isotonic PBS; format: physicochemical; conditions: isotonic phosphate buffered saline (PBS)
Protocol: α-Cyclodextrin derivatives were generously offered by Cyclolab Ltd. (Cyclodextrin Research & Development Laboratory, Budapest, Hungary). […] We investigated each α-CD in 7 different concentrations: 0.01; 0.1; 1; 10; 25; 50 and 100 mM, with the exception of TRIMEA, which was not soluble above 30 mM. The solid samples were dissolved in isotonic phosphate buffered saline (PBS), purchased from Sigma–Aldrich (Budapest, Hungary) (Table 2.)

| IC50 (Caco-2 cells [1]) | IC50 (Caco-2 cells [2]) | Compound | HC50 (human erythrocytes) | concentration up to which no toxic effect (MTT) (Caco-2 cells [2]) | other results |
| --- | --- | --- | --- | --- | --- |
| > 100 mM | > 100 mM | acetylated α-CD [AcACD] | >100 mM | > 100000 µM | concentration up to which non-toxic (RT-CES) (Caco-2 cells [1]): > 100000 µM; concentration up to which not hemolytic (human erythrocytes): > 100000 µM; HC50 (human erythrocytes; listed as acetyl): > 100 mM |
|  | 78.6 ± 15.8 mM | randomly methylated α-CD [RAMEA] | 15.5 ± 0.01 mM |  |  |
| > 1 mM | 1.8 ± 0.8 mM | COC[C@H]1O[C@@H]2O[C@@H]3[C@@H](OC)[C@@H](OC)[C@@H](O[C@@H]4[C@@H](OC)[C@@H](OC)[C@@H](O[C@@H]5[C@@H](OC)[C@@H](OC)[C@@H](O[C@@H]6[C@@H](OC)[C@@H](OC)[C@@H](O[C@@H]7[C@@H](OC)[C@@H](OC)[C@@H](O[C@@H]1[C@@H](OC)[C@H]2OC)O[C@@H]7COC)O[C@@H]6COC)O[C@@H]5COC)O[C@@H]4COC)O[C@@H]3COC [TRIMEA, hexakis-(2,3,6-tri-O-methyl)-α-CD] | 1.9 ± 0.01 mM |  | solubility limit [3]: ≤ 30 mM |
| > 1 mM | 19 ± 8.8 mM | succinylated α-CD [SuACD] | 9.6 ± 0.03 mM |  |  |
| > 100 mM | > 100 mM | (2-hydroxy) propyl α-CD [HPACD] | >100 mM | > 100000 µM | concentration up to which non-toxic (RT-CES) (Caco-2 cells [1]): > 100000 µM; concentration up to which not hemolytic (human erythrocytes): > 100000 µM; HC50 (human erythrocytes; listed as Hydroxypropyl): > 100 mM |
|  |  | OC[C@H]1O[C@@H]2O[C@H]3[C@H](O)[C@@H](O)[C@@H](O[C@H]4[C@H](O)[C@@H](O)[C@@H](O[C@H]5[C@H](O)[C@@H](O)[C@@H](O[C@H]6[C@H](O)[C@@H](O)[C@@H](O[C@H]7[C@H](O)[C@@H](O)[C@@H](O[C@H]1[C@H](O)[C@H]2O)O[C@@H]7CO)O[C@@H]6CO)O[C@@H]5CO)O[C@@H]4CO)O[C@@H]3CO [native, α-cyclodextrin] | 16.0 ± 0.02 mM |  | IC50 (Caco-2 cells [1]; Homo sapiens): > 25 mM; HC50 (human erythrocytes; listed as Native α-CD): 16 mM; IC50 (Caco-2 cells [2]; Homo sapiens, 0.5 h): 46.1 ± 9.2 mM |
|  | 7.8 ± 8.6 mM | phosphated α-CD sodium salt | >100 mM |  | hemolysis, result in words (human erythrocytes): did not result in hemolysis |
|  | > 100 mM | sulfated α-CD | >100 mM | > 100000 µM | toxicity by RT-CES, result in words (Caco-2 cells [1]): toxic when the exposition time was prolonged |
|  | > 100 mM | carboxymethylated α-CD sodium salt [CMACD] | >100 mM | > 100000 µM | toxicity by RT-CES, result in words (Caco-2 cells [1]): toxic when the exposition time was prolonged; HC50 (human erythrocytes; listed as carboxymethylated): > 100 mM |
